Assay: Human HepG2 cell viability assay in 384 well format
Assay type: toxicity, cell-based
Design: dose 125 nL, time 70.5 hour; concentration not given beside the values
Conditions: HepG2 cells, read-out: Inhibition

Structure (SMILES)	cytotoxicity at 70.5 h
CCN(Cc1cc(Br)ccc1F)C(=O)C(C)NC(N)=O (centres undefined)	-19.1%
O=C(c1ccc(-n2ccnc2)nc1)N1CCCC(n2cccn2)C1 (centres undefined)	1.69%
O=C(Cc1ccccn1)N1CCn2cc(Cn3cncn3)nc2C1	0.952%
O=C1NCCCCC1NCc1csc(-c2ccc(F)cc2)n1 (centres undefined)	6.14%
Cc1nc2cc(C(=O)N(CCC#N)CC3CCCO3)ccc2[nH]1 (centres undefined)	-1.19%
Cc1ccc(-c2nc(CN3CCc4nn(C)c(=O)cc4C3)co2)cc1	-17%
CN(CC(=O)N1CCCC1Cn1cccn1)C1CC1 (centres undefined)	-14.3%
CCN1CC(O)CN(C(=O)c2ccc(SC)cc2)CC1=O (centres undefined)	-4.25%
CCc1noc(CS(=O)(=O)C(C)c2nc(C3CC3)no2)n1 (centres undefined)	13.9%
Cc1cc(C)n(CC2CN(CC(=O)Nc3ccncc3)CCO2)n1 (centres undefined)	-2.52%
Cc1nnc(C(C)NCC2(c3c(F)cccc3F)CCCC2)o1 (centres undefined)	-2.47%
Cc1cc(C2CCC2)nc(N2CCN(Cc3nccn3C)CC2)n1	-1.45%
COc1cccc(OCC2CCCN(C(=O)CCn3ccnc3)C2)c1 (centres undefined)	11.7%
CC(Cn1ccnc1)NC(=O)C1(c2ccc3c(c2)OCCO3)CCCC1 (centres undefined)	14.5%
CC(C)C(=O)NC1CCN(c2cccc(OC(F)(F)F)c2)C1=O (centres undefined)	8.86%
Cc1ncc2c(n1)CN(CC(=O)Nc1cc(C)on1)CC2	-5.61%
COc1ccc(NC(=O)NC(C)Cn2cccn2)cn1 (centres undefined)	-11.6%
CCC1CN(CC(=O)NCCC#N)CCO1 (centres undefined)	2.5%
Cc1cnn(CCNCc2csc(C)n2)c1	-5.62%
CCN1CCN(S(=O)(=O)c2cn(C(C)C)cn2)c2ccccc21	-1.25%
CN(Cc1ccc2nsnc2c1)C(=O)Cn1ncc(N(C)C)cc1=O	-7.03%
Cc1cccc(CN2CC[C@@H]3[C@@H]2CCN3C(=O)c2cc(C)oc2C)n1	13.1%
CCN1CCc2nc(N3CCOCC3)nc(NC(C)C)c2C1	-9.45%

Structure (SMILES)	cytotoxicity at 70.5 h
CCn1c(Cn2cncn2)nnc1C1CCN(C2CCOCC2)CC1	34.9%
CCC(=O)N1CCC(NCc2cc(C(F)(F)F)ccc2Cl)C1 (centres undefined)	-4.4%
CC(C)N(C)C[C@H]1OC[C@@H]2CCN(Cc3cccc(C#N)c3)C[C@@H]21	14.2%
CNC(=O)[C@@]12CCO[C@@H]1CCN(S(=O)(=O)c1cc(C)cc(C)c1)C2	-13.2%
CSCCC(Nc1nc(C)cc(C)n1)C(=O)NC1CC1 (centres undefined)	-10.9%
CN(CC1CC1)c1ccc2ccc(C(=O)NCCN3CCOCC3)cn12	-5.52%
CN(C)C(=O)CCNC(=O)c1cnc(-c2ccccc2)nc1	-5.51%
O=C(O)[C@H]1C[C@H](C(=O)NC2CC2)CN(Cc2ccc(-c3cc[nH]n3)s2)C1	11.9%
COc1ccc(Oc2nccnc2C2CCN(C(C)=O)CC2)cc1	-4.84%
CCn1c(C2CCN(C(=O)c3cc(CC(C)C)on3)CC2)nn(C)c1=O	6.02%
CCCNC(=O)C1CCCN(Cc2ccc(-n3cncn3)c(C)c2)C1 (centres undefined)	-1.68%
c1cc(CN2CCCC2)ccc1CNc1cncc2nnnn12	-4.34%
O=C(CCN1CCNCC1)N1CCC2(CC1)c1ccccc1CC2O (centres undefined)	-6.68%
O=C(NCCNC(=O)c1ccc(Br)cc1)c1ccc(O)cc1	-11%
CC1CN(CC(=O)N2CCCC2)CCN1c1ccc2nncn2n1 (centres undefined)	4.7%
OC1(CN2CCCCC2)CCN(Cc2c[nH]c(CC3CCCC3)n2)C1 (centres undefined)	-8.48%
O=C(c1cccs1)N1CC[C@H](O)[C@@H]1Cc1ccccc1	29.4%
Cc1ncccc1NC(=O)[C@H]1C[C@@H]2CCN(Cc3ccsc3)C[C@H]2O1	-13.8%
CC(C)n1nc(CN2CCCC2=O)c2c1CN(C(=O)c1ccno1)C2	-1.71%
NC(=O)c1ccc(NC(=O)Cn2cc(-c3ccccc3)ncc2=O)cc1	-17.2%
COCC1COCCC12CCN(C(=O)CCc1ccccc1C)CC2 (centres undefined)	-5.26%
CCC(CC)N(C)S(=O)(=O)c1ccc(CCNC(C)=O)s1	1.4%
COCCN1CCC2(CC1)CC(NC(=O)CN(C)C)c1ccccc1O2 (centres undefined)	-6.88%

Structure (SMILES)	cytotoxicity at 70.5 h
COCC(=O)N1CCCC(c2noc3nc(C)cc(C(F)(F)F)c23)C1 (centres undefined)	12.8%
CC(=O)Nc1nc(CS(=O)(=O)Cc2ccccc2)cs1	20.1%
C/C=C(\C)CN1C[C@H](c2cccc(OC)c2)[C@@H](N)C1	-5.71%
Cc1nc(CC(=O)N2CCCC2Cn2cccn2)cs1 (centres undefined)	-5%
CCC(C(=O)NCC1=CCN(C)CC1)c1ccccc1 (centres undefined)	30%
c1cc(CNCc2ccnc(N3CCCCC3)c2)c2c(c1)OCCCO2	-10.6%
O=C(c1cc(F)ccc1F)C1CCN(C(=O)c2cnccn2)CC1	-4.44%
COCc1nc(C(=O)N2CCCC2c2noc(C(C)C)n2)cs1 (centres undefined)	-0.699%
CN(CCc1ccccn1)C(=O)c1ccccc1F	-4.18%
CC(=O)NCc1ccc(C(=O)N2CCCC2c2c(C)nn(C)c2C)o1 (centres undefined)	-9.03%
CCCn1nnnc1COC(=O)C1COc2ccccc2O1 (centres undefined)	-6.23%
O=C(c1cnccn1)N1CCC2(CC1)CCN(Cc1ccccn1)C2=O	19.9%
CCS(=O)(=O)N1CC[C@H]2OCC[C@@]2(c2nnc(C)o2)C1	-7.55%
Cc1cccc(CN2C[C@H](NS(C)(=O)=O)[C@@H]3OCCC[C@@H]32)n1	4.73%
CC(C)c1nc(C2CCCN2CC(=O)Nc2ccc(Cl)cn2)no1 (centres undefined)	19.2%
CC(C)Cc1n[nH]c(C2CC(=O)N(CC(C)C)C2)n1 (centres undefined)	-5.1%
Cc1cccc(C(=O)N2CC[C@@H]3CN(c4ncccn4)CCO[C@@H]3C2)c1	-9.91%
O=S(=O)(c1cc(F)ccc1F)n1cc(Cl)cn1	-4.29%
COc1ccccc1-c1nc(C(=O)N2CCOCC2)n2ccncc12	-9.1%
Cc1nc(COC(=O)c2cccc3c2OCCO3)cs1	-11.2%
O=C(NCCOCC(F)(F)F)c1ccc(-c2ccccc2)[nH]c1=O	-7.3%
CCN1CCOC(CNCc2ccccc2OCc2ccccn2)C1 (centres undefined)	1.15%
CN(C)C(=O)CN1CCC(c2cccc(Cc3ccc(F)cc3)n2)CC1	15.8%

Structure (SMILES)	cytotoxicity at 70.5 h
O=C(CCCn1cncn1)NC1(c2ccccc2)CCC1	-4.44%
Cc1ccc(C2(CN3CCCC3)CCNCC2)nc1	-9.4%
CCc1n[nH]c(C2CN(Cc3csc(COC)n3)CCO2)n1 (centres undefined)	-7.86%
CCCc1cc(NCCC2CCCOC2)n2nccc2n1 (centres undefined)	14.3%
CC1(C(=O)NC2CCCC2)CN(c2cnccn2)CCO1 (centres undefined)	-13.6%
CC(C)(C)c1cc(CN2CCOC(CCc3ccccc3)C2)n[nH]1 (centres undefined)	-9.92%
O=C(NCCC1CCN(CC(F)(F)F)CC1)C1CCCO1 (centres undefined)	-1.77%
CC(NC(=O)COc1cccc[n+]1[O-])C1CC1 (centres undefined)	-4.57%
CCN(CCCc1ccccc1)CC1(C)Cc2c(N)nc(N)nc2O1 (centres undefined)	12.9%
Cc1noc(CNc2ccccc2N2CCCCC2)n1	-2.98%
CCOc1cccc(CNC(C)c2ccc(-n3ccnc3)cc2)c1O (centres undefined)	2.29%
CN(C)CCN1C(=O)CCC12CCN(C(=O)CC1CC1)CC2	-6.33%
CN1CCCC(CNC(=O)N(C)Cc2ccc(Cl)c(F)c2)C1 (centres undefined)	7.7%
COc1ccc(C(CO)NC(=O)Nc2cccc(F)c2)cc1 (centres undefined)	-4.24%
Cc1ccccc1C(O)CNC(=O)Cc1ccc(F)cc1 (centres undefined)	-2.44%
Cc1ccc2nc(-c3cnc(N)nc3)c(C)c(C(=O)N(C)C)c2c1	11.2%
CC(C)N1CCC(Nc2ccn(CCC#N)n2)C1=O (centres undefined)	-2.6%
O=C(NCCN1CCCCCC1=O)Nc1cccnc1-n1cccn1	23.5%
O=C(O)c1cc(S(=O)(=O)Nc2ccc(F)cc2F)cc2c1OCCO2	-2.86%
CCc1nc(C)cn1C(=O)Nc1ccc(C)cc1	-1.55%
COC(=O)CCNC(=O)c1coc(COc2ccc(F)cc2)n1	-5.99%
CO[C@@H]1CC[C@H]2[C@H]1OCCN2Cc1ccc(F)cc1	-9.94%
CC(CNC(=O)Nc1ccc(F)cc1-n1cccc1)N1CCOCC1 (centres undefined)	4.4%

Structure (SMILES)	cytotoxicity at 70.5 h
CC(C(=O)O)n1nc(C(F)(F)F)c(Br)c1C1CC1 (centres undefined)	-14%
CC(C)CN(CCc1ccccc1)Cc1nc2c(cnn2C)c(=O)[nH]1	-3.12%
COCc1nc(CNc2cccc(-c3csc(C)n3)c2)cs1	-0.82%
CC(=O)NCCCNCc1ccc(Cl)c2cccnc12	0.472%
CCOCC(=O)N1CCC(C)(c2nccs2)CC1	13.6%
Cc1nc(N[C@H]2COC[C@@H]2N2CCCC2)c2cnn(C)c2n1	-8.31%
Cc1nc(-c2cc(C(=O)NCCN3CCOCC3)c3ccccn23)cs1	-131%
CCc1nc(N2CCOCC2)ncc1C(=O)NC(c1cccs1)C(C)C (centres undefined)	-0.678%
O=C(c1ccc(Cl)s1)N1CC(c2nc(-c3ccc[nH]c3=O)no2)C1	-8.84%
Cc1cc(-c2ccncc2)ccc1OCC(N)=O	-5%
COc1cccc(N2CCN(C(=O)c3noc4c3CCCC4)CC2)c1	-20.2%
Cc1nnc(NC(=O)N2CCCCC2CCO)s1 (centres undefined)	-0.98%
CS(=O)(=O)CCSC1CCN(c2ccccc2F)C1=O (centres undefined)	-14.2%
CN(C(=O)c1ccc(NC(=O)c2cc[nH]n2)cc1)C1CCCCC1	-9.38%
CC(C)Oc1ncccc1CNC(=O)c1ccco1	1.27%
O=C(c1cnccn1)N1CC[C@H]2C[C@@H](c3ccncn3)O[C@@H]2C1	-11.7%
CN1CCOC(CNC(=O)Cc2ccccc2F)C1 (centres undefined)	-8.56%
O=C(c1ccc(-c2cccc3c2CCNC3)o1)N1CCCCC1	-3.94%
Cc1oc(C(=O)O)cc1S(=O)(=O)Nc1cc(Br)ccc1Cl	1.56%
CNS(=O)(=O)c1ccc(CNC(=O)Nc2cn[nH]c2)cc1	-5.63%
CCOC(=O)c1n[nH]cc1CN1CCOC(Cc2ccccc2)C1 (centres undefined)	0.539%
CCOc1ncccc1CNS(=O)(=O)c1ccc2c(c1)CCCC(=O)N2	-4.49%

From ChEMBL document CHEMBL3507680, “University of Dundee, Gates Library screen for HepG2 cell viability”
